Reference: patent US6737383B1, “Herbicidal oxadiazolidines” (priority 1999, dated 2004)

Experiments:
Alexandergrass = assay: Test D Alexandergrass; assay type: in vivo, Brachiaria plantaginea; settings: Postemergence, 0 to 100 scale
common pursiane = assay: Test D common purslane; assay type: in vivo, Portulaca oleracea; settings: Postemergence, 0 to 100 scale
common ragweed = assay: Test D common ragweed; assay type: in vivo, Ambrosia elatior; settings: Postemergence, 0 to 100 scale
common groundsel = assay: Test D common groundsel; assay type: in vivo, Senecio vulgaris; settings: Postemergence, 0 to 100 scale
dallisgrass = assay: Test D dallisgrass; assay type: in vivo, Paspalum dilatatum; settings: Postemergence, 0 to 100 scale
goosegrass = assay: Test D goosegrass; assay type: in vivo, Eleusine indica; settings: Postemergence, 0 to 100 scale
guineagrass = assay: Test D guineagrass; assay type: in vivo, Panicum maximum; settings: Postemergence, 0 to 100 scale
itchgrass = assay: Test D itchgrass; assay type: in vivo, Rottboellia exaltata; settings: Postemergence, 0 to 100 scale
Johnson grass = assay: Test D Johnson grass; assay type: in vivo, Sorghum halepense; settings: Postemergence, 0 to 100 scale
sandbur = assay: Test D sandbur; assay type: in vivo, Cenchrus echinatus; settings: Postemergence, 0 to 100 scale
Spanishneedles = assay: Test D Spanishneedles; assay type: in vivo, Bidens bipinnata; settings: Postemergence, 0 to 100 scale
Green foxtail [1] = assay: Test D green foxtail; assay type: in vivo; settings: Postemergence, 0 to 100 scale, 0 no injury, 100 complete control
Green foxtail [2] = assay: Test D green foxtail; assay type: in vivo; settings: Postemergence, 0 to 100 scale, 0 no injury, 100 complete control; remark: listed apart in the source
Green foxtail [3] = assay: Test D green foxtail; assay type: in vivo; settings: Postemergence, 0 to 100 scale, 0 no injury, 100 complete control; remark: listed apart in the source
Green foxtail [4] = assay: Test D green foxtail; assay type: in vivo; settings: Postemergence, 0 to 100 scale, 0 no injury, 100 complete control; remark: listed apart in the source
[5] = Rate 16 g/ha, 0 no injury, 100 complete control
[6] = Rate 32 g/ha, 0 no injury, 100 complete control
[7] = Rate 64 g/ha, 0 no injury, 100 complete control
[8] = Rate 125 g/ha, 0 no injury, 100 complete control

Structure (SMILES): CC(C)N(C(=O)n1oc(=O)n(C2(C)CC2)c1=O)c1ccccc1 [Compound 360]
- Plant response rating, Alexandergrass (Alexandergrass; [5]): 20
- Plant response rating, Alexandergrass (Alexandergrass; [6]): 60
- Plant response rating, Alexandergrass (Alexandergrass; [7]): 50
- Plant response rating, Alexandergrass (Alexandergrass; [8]): 100
- Plant response rating, Alexandergrass (Alexandergrass; Rate 250 g/ha): 100
- Plant response rating, C. purslane (common pursiane; [5]): 0
- Plant response rating, C. purslane (common pursiane; [6]): 0
- Plant response rating, C. purslane (common pursiane; [7]): 0
- Plant response rating, C. purslane (common pursiane; [8]): 0
- Plant response rating, C. purslane (common pursiane; Rate 250 g/ha): 0
- Plant response rating, C. ragweed (common ragweed; [5]): 0
- Plant response rating, C. ragweed (common ragweed; [6]): 0
- C. ragweed plant response rating (common ragweed; [7]): 30
- Plant response rating, C. ragweed (common ragweed; [8]): 30
- Plant response rating, C. ragweed (common ragweed; Rate 250 g/ha): 30
- Plant response rating, Com. groundsel (common groundsel; [7]): 0
- Plant response rating, Com. groundsel (common groundsel; [8]): 100
- Plant response rating, Com. groundsel (common groundsel; Rate 250 g/ha): 100
- Plant response rating, Dallisgrass (dallisgrass; [5]): 0
- Plant response rating, Dallisgrass (dallisgrass; [6]): 40
- Plant response rating, Dallisgrass (dallisgrass; [7]): 100
- Plant response rating, Dallisgrass (dallisgrass; [8]): 100
- Plant response rating, Dallisgrass (dallisgrass; Rate 250 g/ha): 100
- Plant response rating, Goosegrass (goosegrass; [5]): 20
- Plant response rating, Goosegrass (goosegrass; [6]): 100
- Plant response rating, Goosegrass (goosegrass; [7]): 100
- Plant response rating, Goosegrass (goosegrass; [8]): 100
- Plant response rating, Goosegrass (goosegrass; Rate 250 g/ha): 100
- Plant response rating, Guineagrass (guineagrass; [5]): 0
- Plant response rating, Guineagrass (guineagrass; [6]): 100
- Guineagrass plant response rating (guineagrass; [7]): 100
- Plant response rating, Guineagrass (guineagrass; [8]): 100
- Plant response rating, Guineagrass (guineagrass; Rate 250 g/ha): 100
- Plant response rating, Itchgrass (itchgrass; [5]): 0
- Plant response rating, Itchgrass (itchgrass; [6]): 0
- Plant response rating, Itchgrass (itchgrass; [7]): 0
- Plant response rating, Itchgrass (itchgrass; [8]): 20
- Plant response rating, Itchgrass (itchgrass; Rate 250 g/ha): 30
- Plant response rating Johnsongrass (Johnson grass; [5]): 0
- Plant response rating Johnsongrass (Johnson grass; [6]): 0
- Plant response rating Johnsongrass (Johnson grass; [7]): 0
- Plant response rating Johnsongrass (Johnson grass; [8]): 50
- Plant response rating Johnsongrass (Johnson grass; Rate 250 g/ha): 70
- Plant response rating, Sandbur (sandbur; [5]): 0
- Plant response rating, Sandbur (sandbur; [6]): 90
- Sandbur plant response rating (sandbur; [7]): 50
- Sandbur plant response rating (sandbur; [8]): 100
- Plant response rating, Sandbur (sandbur; Rate 250 g/ha): 100
- Plant response rating, Spanishneedles (Spanishneedles; [5]): 0
- Spanishneedles plant response rating (Spanishneedles; [7]): 0
- Spanishneedles plant response rating (Spanishneedles; [8]): 0
- Plant response rating, Spanishneedles (Spanishneedles; Rate 250 g/ha): 20
- Plant response rating, Green foxtail (Green foxtail [1]; Rate 64 g/ha): 100
- Plant response rating, Green foxtail (Green foxtail [1]; Rate 125 g/ha): 100
- Plant response rating, Green foxtail (Green foxtail [2]; Rate 16 g/ha): 0
- Plant response rating, Green foxtail (Green foxtail [2]; Rate 32 g/ha): 70
- Green foxtail plant response rating (Green foxtail [3]; Rate 64 g/ha): 100
- Green foxtail plant response rating (Green foxtail [3]; Rate 125 g/ha): 100
- Plant response rating, Green foxtail (Green foxtail [4]; Rate 16 g/ha): 0
- Plant response rating, Green foxtail (Green foxtail [4]; Rate 32 g/ha): 70
